According to US20030130280A1, “Treatment of acute myeloid leukemia with indolinone compounds” (SUGEN, Inc., priority 2001, published 2003):

Assays:
Mutant FLT-3 (ITD) = target: T1, Mutant FLT-3 (ITD) (Homo sapiens, UniProt P36888, INS600HVDFREYEYD); assay: FLT-3 phosphorylation by immunoprecipitation/Western in MV411 cells; format: cell-based; details: for Mutant FLT-3 (inhibition of phosphorylation): MV411 cells, IP/Western; as to Mutant FLT-3 (inhibition of phosphorylation): key: +++: very strong inhibition; ++: inhibition; +/−: weak inhibition; −: no inhibition
T1 sequence (P36888 27-993 INS600HVDFREYEYD): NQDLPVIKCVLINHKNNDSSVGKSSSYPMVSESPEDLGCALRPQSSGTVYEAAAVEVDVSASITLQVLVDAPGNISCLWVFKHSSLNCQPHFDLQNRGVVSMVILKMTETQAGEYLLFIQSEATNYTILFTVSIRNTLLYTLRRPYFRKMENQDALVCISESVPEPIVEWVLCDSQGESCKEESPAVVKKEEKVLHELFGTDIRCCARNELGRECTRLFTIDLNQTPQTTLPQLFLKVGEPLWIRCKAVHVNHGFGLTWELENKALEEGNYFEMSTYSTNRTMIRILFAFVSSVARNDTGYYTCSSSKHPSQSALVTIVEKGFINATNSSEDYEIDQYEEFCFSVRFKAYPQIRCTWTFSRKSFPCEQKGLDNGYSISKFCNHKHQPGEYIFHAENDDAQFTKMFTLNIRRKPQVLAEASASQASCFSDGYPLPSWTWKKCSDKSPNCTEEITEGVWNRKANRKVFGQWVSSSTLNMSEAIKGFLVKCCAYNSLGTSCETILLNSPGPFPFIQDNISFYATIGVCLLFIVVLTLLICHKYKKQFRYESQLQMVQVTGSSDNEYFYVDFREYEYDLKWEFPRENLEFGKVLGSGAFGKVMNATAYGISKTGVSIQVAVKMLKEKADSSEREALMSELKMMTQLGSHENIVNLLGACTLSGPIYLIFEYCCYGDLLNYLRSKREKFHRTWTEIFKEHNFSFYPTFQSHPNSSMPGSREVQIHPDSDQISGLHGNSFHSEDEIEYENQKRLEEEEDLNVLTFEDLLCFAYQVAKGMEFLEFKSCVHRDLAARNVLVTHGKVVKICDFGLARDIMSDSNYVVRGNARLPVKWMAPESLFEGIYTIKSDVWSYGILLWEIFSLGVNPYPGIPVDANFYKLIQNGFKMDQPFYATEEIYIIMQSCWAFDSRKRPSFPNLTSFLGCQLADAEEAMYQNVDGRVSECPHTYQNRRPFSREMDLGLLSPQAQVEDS
Protocol: FLT-3 was immunoprecipitated from lysates with a commercially available antibody. Proteins were separated by SDS-polyacrylamide gel electrophoresis, transferred to membranes analyzed by Western blotting for phosphotyrosine and subsequently for total FLT-3 protein as control.
The comparative example is a known protein kinase inhibitor having the following formula: [drawing 18]
(§1) Immunoprecipitation and Western Blot (IP/W) analysis: Cells were lysed in lysis buffer (20 mM Tris, pH 7.5; 137 mM NaCl; 10% glycerol; 1% NP-40; 0.1% SDS; 2 mM EDTA) containing protease and phosphatase inhibitors (50 mM sodium fluoride, 1 mM sodium orthovanadate, 2 mM Pefabloc, […], […], […], 4 mM leupeptin, and 4 mM pepstatin A). Equivalent amounts of protein were separated by SDS-PAGE, then transferred to nitrocellulose membranes. For analysis of FLT3 phosphorylation, equivalent amounts of protein from each sample were immunoprecipitated overnight at 4*C. with an agarose-conjugated anti-FLT3 antibody (Santa Cruz Biotechnology, Santa Cruz, Calif.). Immune complexes were washed (150 mM NaCl, 1.5 mM MgCl2, 50 mM HEPES, pH 7.5, 10% glycerol, 0.1% Triton X-100, and 1 mM EGTA) and following SDS-PAGE, proteins were transferred to nitrocellulose membranes. Membranes were probed with an anti-phosphotyrosine antibody (Upstate, Lake Placid, N.Y. or Transduction Laboratories, Lexington, Ky.) and then stripped with Restore Western Blot Stripping Buffer (Pierce, Rockford, Ill.). Membranes were reprobed with an anti-FLT3 antibody (Santa Cruz Biotechnology). Stat5 antibodies for immunprecipitation and Western blot analysis were from Upstate Biotechnology and Transduction labs respectively.

Wild-type FLT-3 = target: T2, Wild-type FLT-3 (Homo sapiens, UniProt P36888); assay: FLT-3 phosphorylation by immunoprecipitation/Western in RS411 cells; format: cell-based; details: for Wild-type FLT-3 (inhibition of phosphorylation): RS411 cells, IP/Western; as to Wild-type FLT-3 (inhibition of phosphorylation): key: +++: very strong inhibition; ++: inhibition; +/−: weak inhibition; −: no inhibition
T2 construct: host or cells: RS411 (RS4;11)
T2 sequence (P36888 27-993): T1 sequence (P36888 27-993 INS600HVDFREYEYD)
Protocol: FLT-3 was immunoprecipitated from lysates with a commercially available antibody. Proteins were separated by SDS-polyacrylamide gel electrophoresis, transferred to membranes analyzed by Western blotting for phosphotyrosine and subsequently for total FLT-3 protein as control. […]
as §1

| Mutant FLT-3 (inhibition of phosphorylation) (Mutant FLT-3 (ITD)) | inhibition of mutant FLT-3 phosphorylation (Mutant FLT-3 (ITD); in words) | inhibition of wild-type FLT-3 phosphorylation (Wild-type FLT-3; in words) | Compound | Wild-type FLT-3 (inhibition of phosphorylation) (Wild-type FLT-3) |
| --- | --- | --- | --- | --- |
| − |  |  | Cc1cc(CCC(=O)O)c(C=C2C(=O)Nc3ccccc32)[nH]1 [Compound 10, 3-[5-methyl-2-(2-oxo-1,2-dihydro-indol-3-ylidenemethyl)-1H-pyrrol-3-yl]-propionic acid] | +/− |
| − | no inhibition | no inhibition | Cc1[nH]c(/C=C2\C(=O)Nc3ccccc32)c(C)c1CCC(=O)O [Comparative, reference compound] | − |
|  |  |  | CCNCCNC(=O)c1c(C)[nH]c(C=C2C(=O)Nc3ccc(F)cc32)c1C [Compound 8, 5-(5-Fluoro-2-oxo-1,2-dihydro-indol-3-ylidenemethyl)-2,4-dimethyl-1H-pyrrole-3-carboxylic acid(2-ethylamino-ethyl)-amide] | ++ |
|  |  |  | Cc1[nH]c(/C=C2\C(=O)Nc3ccc(F)cc32)c(C)c1C(=O)N1CCC(N2CCOCC2)CC1 [Compound 9, 3-[3,5-dimethyl-4-(4-morpholin-4-yl-piperidine-1-carbonyl)-1H-pyrrol-2-methylene]-5-fluoro-1,3-dihydro-indol-2-one] | ++ |
|  |  |  | Cc1[nH]c(C=C2C(=O)Nc3ccc(F)cc32)c(C)c1C(=O)NCCN1CCOCC1 [Compound 3, 5-(5-Fluoro-2-oxo-1,2-dihydro-indol-3-ylidenemethyl)-2,4-dimethyl-1H-pyrrole-3-carboxylic acid(2-morpholin-4-yl-ethyl)-amide] | +/− |
|  |  |  | Cc1[nH]c(C=C2C(=O)Nc3ccc(Cl)cc32)c(C)c1C(=O)NCC(O)CN1CCOCC1 (stereo not drawn) [Compound 7, 5-(5-Chloro-2-oxo-1,2-dihydro-indol-3-ylidenemethyl)-2,4-dimethyl-1H-pyrrole-3-carboxylic acid(2-hydroxy-3-morpholin-4-yl-propyl)-amide] | ++ |

| Compound | Mutant FLT-3 (inhibition of phosphorylation) (Mutant FLT-3 (ITD)) | inhibition of mutant FLT-3 phosphorylation (Mutant FLT-3 (ITD); in words) | inhibition of wild-type FLT-3 phosphorylation (Wild-type FLT-3; in words) | Wild-type FLT-3 (inhibition of phosphorylation) (Wild-type FLT-3) |
| --- | --- | --- | --- | --- |
| Cc1[nH]c(C=C2C(=O)Nc3ccc(F)cc32)c(C)c1C(=O)NCCN1CCCC1 [Compound 2, 5-(5-Fluoro-2-oxo-1,2-dihydro-indol-3-ylidenemethyl)-2,4-dimethyl-1H-pyrrole-3-carboxylic acid(2-pyrrolidin-1-yl-ethyl)-amide] | ++ |  |  | ++ |
